Experimental data as given in PubChem BioAssay AID248 (DTP/NCI, 2004).
“And” between values parts separate entries of the source, which are not always exact repeats. Equal entries are not always repeated. Toxic doses and inconclusive results are not listed. Rule as the data show it: active = T/C of 150% or more; inactive = T/C below 125%.

Test system: L1210 leukemia ip in BDF1 mice, survival T/C
Assay: NCI In Vivo Anticancer Drug Screen. Data for tumor model L1210 Leukemia (intraperitoneal) in B6D2F1 (BDF1) mice
Conditions: endpoint: mean survival time, higher = longer survival
Summary of the method: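 Mice bearing the transplanted tumor received compound or vehicle. Survival of the treated group was divided by that of the vehicle-treated control group to give the ratio.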

[1] = dose: 100.0 mg/kg/injection, schedule: Q01DX009 (ip), vehicle: saline with Tween-80
[2] = dose: 100.0 mg/kg/injection, schedule: Q04DX003 (ip), vehicle: saline with Tween-80
[3] = dose: 200.0 mg/kg/injection, schedule: Q01DX009 (ip), vehicle: saline with Tween-80
[4] = dose: 200.0 mg/kg/injection, schedule: Q04DX003 (ip), vehicle: saline with Tween-80
[5] = dose: 400.0 mg/kg/injection, schedule: Q01DX009 (ip), vehicle: saline with Tween-80
[6] = dose: 400.0 mg/kg/injection, schedule: Q04DX003 (ip), vehicle: saline with Tween-80
[7] = dose: 10.0 mg/kg/injection, schedule: Q01DX001 (ip), vehicle: saline
[8] = dose: 20.0 mg/kg/injection, schedule: Q01DX001 (ip), vehicle: saline
[9] = dose: 40.0 mg/kg/injection, schedule: Q01DX001 (ip), vehicle: saline
[10] = dose: 100.0 mg/kg/injection, schedule: Q01DX001 (ip), vehicle: saline
[11] = dose: 100.0 mg/kg/injection, schedule: Q01DX009 (ip), vehicle: Klucel (hydroxypropylcellulose) (HPC)
[12] = dose: 12.5 mg/kg/injection, schedule: Q01DX009 (ip), vehicle: saline with Tween-80
[13] = dose: 25.0 mg/kg/injection, schedule: Q01DX009 (ip), vehicle: saline with Tween-80
[14] = dose: 50.0 mg/kg/injection, schedule: Q01DX009 (ip), vehicle: saline with Tween-80
[15] = dose: 200.0 mg/kg/injection, schedule: Q01DX009 (ip), vehicle: Klucel (hydroxypropylcellulose) (HPC)
[16] = dose: 100.0 mg/kg/injection, schedule: Q04DX003 (ip), vehicle: Klucel (hydroxypropylcellulose) (HPC)
[17] = dose: 200.0 mg/kg/injection, schedule: Q04DX003 (ip), vehicle: Klucel (hydroxypropylcellulose) (HPC)

Measured: T/C

CC(O)(Cc1ccccc1)c1ccccc1 (stereo not given)
inactive: dose: 44.0 mg/kg/injection, schedule: Q04DX003 (ip), vehicle: saline with Tween-80 94 % of control | dose: 66.0 mg/kg/injection, schedule: Q04DX003 (ip), vehicle: saline with Tween-80 94 % of control | [1] 102 % of control | [2] 94 % of control | dose: 150.0 mg/kg/injection, schedule: Q04DX003 (ip), vehicle: saline with Tween-80 96 % of control | [3] 98 % of control | [4] 107 % of control | [5] 102 % of control | [6] 104 % of control

CN(C)CCCNc1cc2c3ccccc3ncc2c2ccccc12
inactive: [1] 98 % of control | [2] 108 % of control | [3] 93 % of control | [4] 113 % of control | [5] 108 % of control | [6] 101 % of control

CCC(C(=O)NC(=O)NOC)c1ccccc1 (stereo not given)
inactive: dose: 100.0 mg/kg/injection, schedule: Q01DX Z (ip), vehicle: methylcellulose (MC) 95 % of control | dose: 200.0 mg/kg/injection, schedule: Q01DX Z (ip), vehicle: methylcellulose (MC) 114 % of control | dose: 400.0 mg/kg/injection, schedule: Q01DX Z (ip), vehicle: methylcellulose (MC) 116 % of control

Cc1nc2ccccc2[nH]1
inactive: dose: 25.0 mg/kg/injection, schedule: Q04DX002 (ip), vehicle: Klucel (hydroxypropylcellulose) (HPC) 109 % of control | dose: 50.0 mg/kg/injection, schedule: Q04DX002 (ip), vehicle: Klucel (hydroxypropylcellulose) (HPC) 105 % of control | dose: 100.0 mg/kg/injection, schedule: Q04DX002 (ip), vehicle: Klucel (hydroxypropylcellulose) (HPC) 105 % of control

O=[N+]([O-])c1ccc(CSC2=NCCN2)cc1
inactive: dose: 25.0 mg/kg/injection, schedule: Q01DX009 (ip), vehicle: saline 96 % of control | dose: 50.0 mg/kg/injection, schedule: Q01DX009 (ip), vehicle: saline 104 % of control | dose: 100.0 mg/kg/injection, schedule: Q01DX009 (ip), vehicle: saline 98 % of control

CCCCn1c(N)n[nH]c1=S
inactive: [2] 100 % of control | [4] 90 % of control | [6] 94 % of control

c1ccc(N2CCNCC2)cc1
inactive: dose: 5.0 mg/kg/injection, schedule: Q01DX001 (ip), vehicle: saline 98 % of control [middle of 5 runs] | dose: 6.25 mg/kg/injection, schedule: Q01DX001 (ip), vehicle: saline 97 % of control | dose: 6.25 mg/kg/injection, schedule: Q04DX003 (ip), vehicle: saline 99 % of control | [7] 102 % of control [middle of 5 runs] | dose: 12.5 mg/kg/injection, schedule: Q01DX001 (ip), vehicle: saline 92 % of control | dose: 12.5 mg/kg/injection, schedule: Q04DX003 (ip), vehicle: saline 99 % of control | [8] 98 % of control [middle of 5 runs] | dose: 25.0 mg/kg/injection, schedule: Q01DX001 (ip), vehicle: saline 97 % of control | dose: 25.0 mg/kg/injection, schedule: Q04DX003 (ip), vehicle: saline 96 % of control | [9] 104 % of control [middle of 5 runs] | dose: 80.0 mg/kg/injection, schedule: Q01DX001 (ip), vehicle: saline 92 % of control and 98 % of control and 115 % of control | [10] 101 % of control

CCCCCCCCCCCC(=O)Nc1ccc(S(=O)(=O)NNc2ccccc2)cc1[N+](=O)[O-]
inactive: [11] 95 % of control | dose: 100.0 mg/kg/injection, schedule: Q04DX003 (ip), vehicle: alcohol 94 % of control | dose: 200.0 mg/kg/injection, schedule: Q04DX003 (ip), vehicle: alcohol 95 % of control | dose: 400.0 mg/kg/injection, schedule: Q04DX003 (ip), vehicle: alcohol 90 % of control

Cc1ccccc1S(=O)(=O)/C(=C(/I)c1ccccc1)c1ccccc1
inactive: [10] 90 % of control | dose: 200.0 mg/kg/injection, schedule: Q01DX001 (ip), vehicle: saline 92 % of control | dose: 400.0 mg/kg/injection, schedule: Q01DX001 (ip), vehicle: saline 95 % of control

ClCC1COCO1 (stereo not given)
inactive: [12] 107 % of control | [13] 102 % of control | [14] 106 % of control

CCN(CC)c1cccc(N)c1
inactive: dose: 25.0 mg/kg/injection, schedule: Q01DX009 (sc), vehicle: olive oil, sesame oil, peanut oil 100 % of control | dose: 50.0 mg/kg/injection, schedule: Q01DX009 (sc), vehicle: olive oil, sesame oil, peanut oil 104 % of control | dose: 100.0 mg/kg/injection, schedule: Q01DX009 (sc), vehicle: olive oil, sesame oil, peanut oil 114 % of control | dose: 100.0 mg/kg/injection, schedule: Q04DX003 (sc), vehicle: olive oil, sesame oil, peanut oil 110 % of control

CC(C)(Br)C(=O)c1ccc([N+](=O)[O-])o1
inactive: [12] 97 % of control | [13] 104 % of control | dose: 25.0 mg/kg/injection, schedule: Q04DX003 (ip), vehicle: saline with Tween-80 104 % of control | [14] 95 % of control | dose: 50.0 mg/kg/injection, schedule: Q04DX003 (ip), vehicle: saline with Tween-80 96 % of control | [2] 99 % of control and 89 % of control

O=C(COc1ccc(Cl)cc1Cl)NCCBr
inactive: [11] 91 % of control | [15] 92 % of control | dose: 400.0 mg/kg/injection, schedule: Q01DX009 (ip), vehicle: Klucel (hydroxypropylcellulose) (HPC) 96 % of control

CSc1cccc(NC(=O)/C=C/C(=O)O)c1
inactive: dose: 75.0 mg/kg/injection, schedule: Q01DX009 (ip), vehicle: Klucel (hydroxypropylcellulose) (HPC) 98 % of control | dose: 150.0 mg/kg/injection, schedule: Q01DX009 (ip), vehicle: Klucel (hydroxypropylcellulose) (HPC) 93 % of control | dose: 300.0 mg/kg/injection, schedule: Q01DX009 (ip), vehicle: Klucel (hydroxypropylcellulose) (HPC) 93 % of control

Cc1ccc(S(=O)(=O)OCC(=O)O)cc1
inactive: [2] 95 % of control | [4] 95 % of control | [6] 100 % of control

CC(=O)OCc1ccc[n+](CCc2c[nH]c3ccccc23)c1
inactive: [2] 95 % of control | [4] 90 % of control

N#[N+]c1ccc2[nH]c3ccccc3c(=O)c2c1
inactive: dose: 5.0 mg/kg/injection, schedule: Q01DX009 (ip), vehicle: saline 105 % of control | [7] 101 % of control | dose: 10.0 mg/kg/injection, schedule: Q01DX009 (ip), vehicle: saline 102 % of control | dose: 10.0 mg/kg/injection, schedule: Q04DX003 (ip), vehicle: saline 94 % of control | [8] 101 % of control | dose: 20.0 mg/kg/injection, schedule: Q01DX009 (ip), vehicle: saline 94 % of control | dose: 20.0 mg/kg/injection, schedule: Q04DX003 (ip), vehicle: saline 97 % of control | [9] 104 % of control | dose: 40.0 mg/kg/injection, schedule: Q04DX003 (ip), vehicle: saline 97 % of control

O=C(SCc1ccccc1)c1cccnc1
inactive: [2] 99 % of control

CCOC(=O)CC(C(=O)OCC)c1nc2ccccc2[nH]c1=O (stereo not given)
inactive: dose: 50.0 mg/kg/injection, schedule: Q01DX009 (ip), vehicle: Klucel (hydroxypropylcellulose) (HPC) 93 % of control and 113 % of control | [11] 101 % of control and 90 % of control | [15] 93 % of control and 103 % of control

N#CC1(C(=O)c2ccccc2)C=Cc2ccccc2N1C(=O)c1ccccc1 (stereo not given)
inactive: dose: 100.0 mg/kg/injection, schedule: Q01DX001 (ip), vehicle: steriod suspending solution 87 % of control | dose: 200.0 mg/kg/injection, schedule: Q01DX001 (ip), vehicle: steriod suspending solution 90 % of control | dose: 400.0 mg/kg/injection, schedule: Q01DX001 (ip), vehicle: steriod suspending solution 92 % of control

CC1(c2ccccc2)NC(=O)N(CCC#N)C1=O (stereo not given)
inactive: dose: 100.0 mg/kg/injection, schedule: Q04DX003 (ip), vehicle: acetone 100 % of control | dose: 200.0 mg/kg/injection, schedule: Q04DX003 (ip), vehicle: acetone 90 % of control | dose: 400.0 mg/kg/injection, schedule: Q04DX003 (ip), vehicle: acetone 104 % of control

Clc1cc(Cl)cc(N=Nc2ccccc2)c1
inactive: [16] 102 % of control | [17] 103 % of control | dose: 400.0 mg/kg/injection, schedule: Q04DX003 (ip), vehicle: Klucel (hydroxypropylcellulose) (HPC) 103 % of control

O=S(=O)(Nc1ccc(C(F)(F)F)cc1)c1ccc(C(F)(F)F)cc1
inactive: [16] 95 % of control | [17] 92 % of control

CC1=C[P+](C)(Cc2ccccc2)CC1 (stereo not given)
inactive: [10] 100 % of control
